# Test results taken from patent US12421253B2 (Mirati Therapeutics, Inc., priority 2020, dated 2025).
# Tests used:
# KRas^G12A = target: T1, KRas^G12A (Homo sapiens, UniProt P01116, G12A); test: KRas binding assay (TR-FRET displacement of Cy5 labelled tracer)
# T1 construct: […]; biotin (biotinylated); purchased Accelegan Inc
# Description: (§6) The ability of a compound to bind to KRas was measured using a TR-FRET displacement assay. […] After a 60-minute incubation at room temperature, the reaction was measured using a BMG LABTECH CLARIO star Plus via TR-FRET. […] The POC values were fit to a 4-parameter IC50 equation and the IC50 value reported.
# KRas^G12R = target: T2, KRas^G12R (Homo sapiens, UniProt P01116, G12R); test: as above
# T2 construct: […]; biotin (biotinylated); purchased Accelegan Inc
# Description: as §6
# [1] = test system: NCI-H727 (G12V) cells, phospho-ERK; test: Inhibition of KRas-mediated phosphorylation of ERK (phospho-ERK/GAPDH antibody detection, LI-COR); format: cell-based; conditions: Homo sapiens, 3 hours
# Description: (§1) AsPC-1 (G12D, ATCC CRL-1682), A549 (G12S, ATCC CCL-185), HCT116 (G13D, ATCC CCL-247) cells were grown in DMEM medium supplemented with 10% fetal bovine serum and Penicillin/Streptomycin. NCI-H358 (G12C, ATCC CRL-5807), NCI-H460 (Q61H, ATCC HTB-117), NCI-H727 (G12V, ATCC CRL-5815), MKN1 (WTdep, JCRB JCRB0252), PSN-1 (G12R, ATCC CRM-CRL-3211) cells were grown in RPMI medium supplemented with 10% fetal bovine serum, 10 mM HEPES, 10 mM Sodium Pyruvate, and Penicillin/Streptomycin. Cells were plated in black well clear bottom tissue culture treated 96 well plates (Corning, 3904) at a density of 20,000 cells/well and allowed to attach for 12-14 hours. Diluted compounds were then added in a final concentration of 0.5% DMSO. After 3 hours, 50 μL of 4.0% formaldehyde was added and the plates incubated at room temperature for 20 minutes. The plates were then dumped and permeabilized with 150 μL of ice cold 100% methanol for 10 minutes. Non-specific antibody binding to the plates was blocked using 100 μL Odyssey blocking buffer (LI-COR Biosciences, 927-60010) for 1 hour at room temperature.
# (§2) The amount of phospho-ERK was determined using an antibody specific for the phosphorylated form of ERK and compared to the amount of GAPDH. Primary antibodies used for the detection were added as follows: Phospho-ERK (Cell Signaling CS-9101) diluted 1:500 and GAPDH (Millipore MAB374) diluted 1:5000 in Odyssey blocking buffer+0.05% Tween 20. The plates were incubated overnight at 4 C. The plates were washed 3× with 150 uL PBS+0.1% Tween 20.
# (§3) Secondary antibodies used to visualize primary antibodies were added as follows: Goat Anti-Rabbit-800 (LI-COR, 926-32211) and Goat Anti-Mouse-680 (LI-COR, 926-68070) diluted 1:800 both in Odyssey blocking buffer+0.05% Tween 20 and were incubated for 1 hour at room temperature. The plates were washed 3× with 150 uL PBS+[…]. Plates were imaged dry on a Li—COR Odyssey CLX plate reader.
# (§4) The phospho-ERK (Thr202/Tyr204) signal was normalized to the GAPDH signal for each well and percent of DMSO control values were calculated. IC50 values were generated using a 4-parameter fit of the dose response curve.
# [2] = test system: NCI-H460 (Q61H) cells, phospho-ERK; test: as above; format: cell-based; conditions: Homo sapiens, 3 hours
# Description: as §1, §2, §3, §4
# [3] = test system: AsPC-1 (G12D) cells, phospho-ERK; test: as above; format: cell-based; conditions: Homo sapiens, ASPC1, 3 hours
# Description: as §1, §2, §3, §4
# KRas^WT = target: T3, KRas^WT (Homo sapiens, UniProt P01116); test: KRas binding assay (TR-FRET displacement of Cy5 labelled tracer)
# T3 construct: […]; biotin (biotinylated); purchased Accelegan Inc
# T3 sequence (P01116 1-169 isoform P01116-2): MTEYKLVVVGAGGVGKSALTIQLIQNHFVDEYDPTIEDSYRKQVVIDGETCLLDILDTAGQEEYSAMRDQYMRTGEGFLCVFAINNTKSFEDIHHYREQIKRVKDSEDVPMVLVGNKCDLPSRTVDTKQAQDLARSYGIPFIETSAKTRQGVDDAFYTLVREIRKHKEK
# Description: as §6
# MKN1 cells, pERK = test: Inhibition of KRas phosphorylation of ERK (Cisbio HTRF Advanced pERK assay); format: cell-based; conditions: Homo sapiens, MKN-1, 3 h, read-out: Inhibition (HTRF IC50 nM) of KRas-mediated Phosphorylation of ERK, MKN1
# Procedure, shortened: (§5)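 pERK measured by HTRF in lysates from cells treated 3 h with compound, 10 uM top, 3-fold steps, 10 doses, 0.8% DMSO final. Cells (6,000/well, RPMI 10% FBS) had been plated overnight at 37 °C; 0.2 uM trametinib defined minimum signal; antibody detection 2 h at room temperature.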
# PSN1 cells, pERK = test: as above; format: cell-based; conditions: Homo sapiens, PSN1, 3 h, read-out: Inhibition (HTRF IC50 nM) of KRas-mediated Phosphorylation of ERK, PSN1
# Procedure, shortened: as §5
# KRas^Q61H = KRas^Q61H (Homo sapiens, UniProt P01116, Q61H); test: biochemical
# KRas^Q61H, sequence (P01116 1-169 isoform P01116-2 Q61H): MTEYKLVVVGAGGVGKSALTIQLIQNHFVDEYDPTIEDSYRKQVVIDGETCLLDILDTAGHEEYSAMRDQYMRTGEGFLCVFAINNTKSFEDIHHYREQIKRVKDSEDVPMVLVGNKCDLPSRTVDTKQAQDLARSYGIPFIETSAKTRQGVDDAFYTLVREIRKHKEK
# Description: as §6
# KRas^G12V = target: T4, KRas^G12V (Homo sapiens, UniProt P01116, G12V); test: KRas binding assay (TR-FRET displacement of Cy5 labelled tracer)
# T4 construct: […]; biotin (biotinylated); purchased Accelegan Inc
# T4 sequence (P01116 1-169 isoform P01116-2 G12V): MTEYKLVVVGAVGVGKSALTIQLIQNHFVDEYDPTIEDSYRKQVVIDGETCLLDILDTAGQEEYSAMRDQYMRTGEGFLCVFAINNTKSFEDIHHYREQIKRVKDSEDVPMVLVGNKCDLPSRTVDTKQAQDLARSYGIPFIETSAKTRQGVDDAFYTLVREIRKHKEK
# Description: as §6
# KRas^G13D = KRas^G13D (Homo sapiens, UniProt P01116, G13D); test: biochemical
# KRas^G13D, sequence (P01116 1-169 isoform P01116-2 G13D): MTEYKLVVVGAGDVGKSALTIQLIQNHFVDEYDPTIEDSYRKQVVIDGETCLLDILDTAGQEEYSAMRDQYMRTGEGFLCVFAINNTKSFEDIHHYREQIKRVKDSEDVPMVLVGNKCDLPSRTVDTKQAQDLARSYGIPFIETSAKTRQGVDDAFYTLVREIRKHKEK
# Description: as §6
# KRas^G12C = KRas^G12C (Homo sapiens, UniProt P01116, G12C); test: biochemical
# KRas^G12C, sequence (P01116 1-169 isoform P01116-2 G12C): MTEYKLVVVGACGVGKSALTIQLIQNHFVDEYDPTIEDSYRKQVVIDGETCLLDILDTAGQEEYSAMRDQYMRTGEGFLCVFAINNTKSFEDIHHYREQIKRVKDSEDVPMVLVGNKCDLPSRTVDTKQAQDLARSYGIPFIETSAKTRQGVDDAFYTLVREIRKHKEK
# Description: as §6
# KRas^G12S = target: T5, KRas^G12S (Homo sapiens, UniProt P01116, G12S); test: KRas binding assay (TR-FRET displacement of Cy5 labelled tracer)
# T5 construct: […]; biotin (biotinylated); purchased Accelegan Inc
# T5 sequence (P01116 1-169 isoform P01116-2 G12S): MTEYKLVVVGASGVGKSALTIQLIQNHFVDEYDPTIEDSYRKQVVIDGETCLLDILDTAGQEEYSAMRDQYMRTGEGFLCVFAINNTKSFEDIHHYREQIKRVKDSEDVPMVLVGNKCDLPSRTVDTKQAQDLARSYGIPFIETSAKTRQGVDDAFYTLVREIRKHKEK
# Description: as §6
# KRas^G12D = target: T6, KRas^G12D (Homo sapiens, UniProt P01116, G12D); test: as above
# T6 construct: […]; biotin (biotinylated); purchased Accelegan Inc
# T6 sequence (P01116 1-169 isoform P01116-2 G12D): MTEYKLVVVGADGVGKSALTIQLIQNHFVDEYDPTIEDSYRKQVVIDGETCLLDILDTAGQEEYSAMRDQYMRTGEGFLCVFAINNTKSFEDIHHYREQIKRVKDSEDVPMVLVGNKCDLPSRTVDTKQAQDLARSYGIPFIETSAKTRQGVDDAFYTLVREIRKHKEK
# Description: as §6
# HCT116 cells, pERK = test: Inhibition of KRas phosphorylation of ERK (Cisbio HTRF Advanced pERK assay); format: cell-based; conditions: Homo sapiens, HCT-116, 3 hrs, read-out: Inhibition (HTRF IC50 nM) of KRas-mediated Phosphorylation of ERK, HCT116
# Procedure, shortened: as §5
# ASPC1 cells, pERK = test: as above; format: cell-based; conditions: Homo sapiens, ASPC1, 3 h, AsPC-1 cells, read-out: Inhibition (HTRF IC50 nM) of KRas-mediated Phosphorylation of ERK, AsPC-1
# Procedure, shortened: as §5
# H727 cells, pERK = test: as above; format: cell-based; conditions: Homo sapiens, NCI-H727, 3 h, read-out: Inhibition (HTRF IC50 nM) of KRas-mediated Phosphorylation of ERK, H727
# Procedure, shortened: as §5
# H460 cells, pERK = test: as above; format: cell-based; conditions: Homo sapiens, NCI-H460, 3 hrs, read-out: Inhibition (HTRF IC50 nM) of KRas-mediated Phosphorylation of ERK, H460
# Procedure, shortened: as §5
# A549 cells, pERK = test: as above; format: cell-based; conditions: Homo sapiens, 3 hrs, read-out: Inhibition (HTRF IC50 nM) of KRas-mediated Phosphorylation of ERK, A549
# Procedure, shortened: as §5
# T2 sequence (P01116 1-169 isoform P01116-2 G12R): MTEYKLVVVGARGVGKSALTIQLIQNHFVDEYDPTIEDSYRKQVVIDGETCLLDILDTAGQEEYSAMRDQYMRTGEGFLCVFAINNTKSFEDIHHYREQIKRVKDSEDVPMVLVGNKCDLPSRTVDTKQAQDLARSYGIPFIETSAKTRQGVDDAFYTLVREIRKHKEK
# T1 sequence (P01116 1-169 isoform P01116-2 G12A): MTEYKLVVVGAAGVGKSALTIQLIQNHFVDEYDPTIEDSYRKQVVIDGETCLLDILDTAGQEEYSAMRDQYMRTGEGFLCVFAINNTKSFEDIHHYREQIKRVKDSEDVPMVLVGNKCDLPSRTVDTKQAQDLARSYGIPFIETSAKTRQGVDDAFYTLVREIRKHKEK
structure (smiles),measurement,setting,value
"CCc1c(F)ccc2cc(O)cc(N3CCc4c(nc(OC[C@@]56CCCN5C[C@H](F)C6)nc4N4CCCC(c5ncn[nH]5)C4)C3)c12 (stereo partly drawn) [Example 19, 4-(4-(3-(1H-1,2,4-triazol-5-yl)piperidin-1-yl)-2-(((2R,7aS)-2-fluorotetrahydro-1H-pyrrolizin-7a(5H)-yl)methoxy)-5,8-dihydropyrido[3,4-d]pyrimidin-7(6H)-yl)-5-ethyl-6-fluoronaphthalen-2-ol]",IC50,KRas^G12A,0.004 µM
same,IC50,KRas^G12R,0.004 µM
same,IC50,[1],2930 nM
same,IC50,[2],1290 nM
same,IC50,[3],2680 nM
same,IC50,KRas^WT,0.008 µM
same,IC50,"MKN1 cells, pERK",389 nM
same,IC50,"PSN1 cells, pERK",≥ 10000 nM
same,IC50,KRas^Q61H,0.009 µM
same,IC50,KRas^G12V,0.006 µM
same,IC50,KRas^G13D,0.011 µM
same,IC50,KRas^G12C,0.005 µM
same,IC50,KRas^G12S,0.009 µM
same,IC50,KRas^G12D,0.026 µM
"CCc1c(F)ccc2cc(O)cc(N3CCc4c(nc(OC[C@@]56CCCN5C[C@H](F)C6)nc4NCc4c[nH]c5ncccc45)C3)c12 [Example 23, 4-(4-(((1H-pyrrolo[2,3-b]pyridin-3-yl)methyl)amino)-2-(((2R,7aS)-2-fluorohexahydro-1H-pyrrolizin-7a-yl)methoxy)-5,6-dihydropyrido[3,4-d]pyrimidin-7(8H)-yl)-5-ethyl-6-fluoronaphthalen-2-ol]",IC50,KRas^G12A,0.009 µM
same,IC50,KRas^G12R,0.004 µM
same,IC50,[1],2420 nM
same,IC50,[2],1770 nM
same,IC50,[3],3850 nM
same,IC50,KRas^WT,0.036 µM
same,IC50,"MKN1 cells, pERK",53 nM
same,IC50,"PSN1 cells, pERK",≥ 10000 nM
same,IC50,KRas^Q61H,0.038 µM
same,IC50,KRas^G12V,0.005 µM
same,IC50,KRas^G13D,0.042 µM
same,IC50,KRas^G12C,0.007 µM
same,IC50,KRas^G12S,0.012 µM
same,IC50,KRas^G12D,0.069 µM
"CCc1c(F)ccc2cc(O)cc(N3CCc4c(nc(OC[C@@]56CCCN5C[C@H](F)C6)nc4N4CCOCC(n5cccn5)C4)C3)c12 (stereo partly drawn) [Example 25, 4-(4-(6-(1H-pyrazol-1-yl)-1,4-oxazepan-4-yl)-2-(((2R,7aS)-2-fluorohexahydro-1H-pyrrolizin-7a-yl)methoxy)-5,6-dihydropyrido[3,4-d]pyrimidin-7(8H)-yl)-5-ethyl-6-fluoronaphthalen-2-ol]",IC50,KRas^G12R,0.004 µM
same,IC50,[1],540 nM
same,IC50,[2],171 nM
same,IC50,[3],448 nM
same,IC50,"HCT116 cells, pERK",521 nM
same,IC50,"ASPC1 cells, pERK",180 nM
same,IC50,"MKN1 cells, pERK",51 nM
same,IC50,"PSN1 cells, pERK",8320 nM
same,IC50,"H727 cells, pERK",767 nM
same,IC50,KRas^G12V,0.003 µM
same,IC50,KRas^G12D,0.003 µM
"CCc1c(F)ccc2cc(O)cc(N3CCc4c(nc(OC[C@@]56CCCN5C[C@H](F)C6)nc4N4CCOCC(O)C4)C3)c12 (stereo partly drawn) [Example 29, 4-(7-(8-ethyl-7-fluoro-3-hydroxynaphthalen-1-yl)-2-(((2R,7aS)-2-fluorohexahydro-1H-pyrrolizin-7a-yl)methoxy)-5,6,7,8-tetrahydropyrido[3,4-d]pyrimidin-4-yl)-1,4-oxazepan-6-ol]",IC50,KRas^G12R,≤ 0.002 µM
same,IC50,[1],542 nM
same,IC50,[2],285 nM
same,IC50,[3],509 nM
same,IC50,"HCT116 cells, pERK",1310 nM
same,IC50,"ASPC1 cells, pERK",318 nM
same,IC50,"MKN1 cells, pERK",20 nM
same,IC50,"PSN1 cells, pERK",5810 nM
same,IC50,"H727 cells, pERK",906 nM
same,IC50,KRas^G12V,≤ 0.002 µM
same,IC50,KRas^G12D,≤ 0.002 µM
"O=C1NC(=O)C2(CCCN(c3nc(OC[C@@]45CCCN4C[C@H](F)C5)nc4c3CCN(c3cc(O)cc5ccc(F)c(Cl)c35)C4)C2)N1 (stereo partly drawn) [Example 69, 7-(7-(8-chloro-7-fluoro-3-hydroxynaphthalen-1-yl)-2-(((2R,7aS)-2-fluorohexahydro-1H-pyrrolizin-7a-yl)methoxy)-5,6,7,8-tetrahydropyrido[3,4-d]pyrimidin-4-yl)-1,3,7-triazaspiro[4.5]decane-2,4-dione]",IC50,KRas^G12R,≤ 0.002 µM
same,IC50,"H460 cells, pERK",68 nM
same,IC50,"A549 cells, pERK",59 nM
same,IC50,"HCT116 cells, pERK",164 nM
same,IC50,"ASPC1 cells, pERK",122 nM
same,IC50,"MKN1 cells, pERK",41 nM
same,IC50,"PSN1 cells, pERK",578 nM
same,IC50,"H727 cells, pERK",194 nM
same,IC50,KRas^G12V,0.052 µM
same,IC50,KRas^G12D,≤ 0.002 µM
